Columns and labels:
mouse NPC1L1 = target: T1, mouse NPC1L1 (Mus musculus, UniProt Q6T3U4); assay: Effect of ezetimibe on cholesterol uptake, mouse NPC1L1 transfected CHO cells; type: cell-based; conditions: EZ (10 μM), mNPC1L1(C7)
T1 construct: expressed in transfected cells; pCDNA3)
Experimental: (§1) The effect of ezetimibe on the ability of CHO cells stably transfected with mouse or rat NPC1L1 or mouse SR-B1 to take up ^3H-labeled cholesterol was evaluated in pulse-chase experiments. One cDNA clone of mouse NPC1L1 (C7) and three clones of rat NPC1L1 (C7, C17 and C21) were evaluated. The ability of CHO cells stably transfected with mouse SR-B1, mouse NPC1L1 and rat NPC1L1 to take up labeled cholesterol, in the absence of ezetimibe, was also evaluated in the pulse-chase experiments. Data generated in these experiments are set forth, below, in Tables 4 and 5. Additionally, the quantity of total cholesterol taken up by transfected and untransfected CHO cells in the presence of four different unlabeled cholesterol concentrations was also evaluated.
(§2) Starve. The maintenance media (F12 HAMS, 1% Pen/Strep, 10% FCS) was removed and the cells were rinsed with serum-free HAMS media. The serum-free media was then replaced with 1 mL “starve” media (F12 HAMS, Pen/Strep, 5% lipoprotein deficient serum (LPDS). The cells were then starved overnight.
(§3) Pre-Incubation/pre-dose. Media was removed from all plates and replaced with fresh starve media and preincubated for 30 minutes. Half of the wells received media containing ezetimibe (stock soln in EtOH; final conc.=10 μM).
(§4) ^3H-Cholesterol Pulse. The following was added directly to each well: • 0.5 μCi ^3H-cholesterol (˜1.1×10^6 dpm/well) in 50 μl of a mixed bile salt micelle • 4.8 mM sodium taurocholate (2.581 mg/mL) • 0.6 mM sodium oleate (0.183 mg/mL) • 0.25 mM cholesterol (0.1 mg/mL) • Dispersed in “starve” media by ultrasonic vibration • Final media cholesterol concentration=5 μg/mL
(§5) Labeled cholesterol pulse time points were 4, 12, 24 minutes and 4 hours. Triplicate wells were prepared for each treatment.
(§6) Wash. At designated times, media was aspirated and cells were washed once with Hobbs Buffer A (50 mM Tris, 0.9% NaCl, 0.2% bovine serum albumin (BSA), pH 7.4) and once with Hobbs Buffer B (50 mM Tris, 0.9% NaCl, pH 7.4 (no BSA)) at 37° C.
(§7) A. 4, 12, 24 minute time points: Cells were digested overnight with 0.2N NaOH, 2 mL/well, room temperature. One 1.5 mL aliquot was removed from each well, neutralized & counted for radioactivity by scintillation counting.
(§8) B. 4 hour time point: The digested cells were analyzed by thin-layer chromatography to determine the content of cholesterol ester in the cells.
(§9) Extracts were spotted onto TLC plates and run for 30 minutes in 2 ml hexane:isopropanol (3:2) mobile phase for 30 minutes, followed by a second run in 1 ml hexane:isopropanol (3:2) mobile phase for 15 minutes.
(§10) C. Protein determination of cell extracts. Plates containing a sample of the cell extracts were placed on orbital shaker at 120 rpm for indicated times and then extracts are pooled into 12×75 tubes. Plates were dried and NaOH (2 ml/well) added. The protein content of the samples were then determined. Two additional 50 μl aliquots from all wells were assayed for total protein by the Pierce micro BCA method. The quantity of labeled cholesterol observed in the cells was normalized to the quantity of protein in the cells.

[1] = tested on: CHO background (no transfection); assay: Effect of ezetimibe on cholesterol uptake, CHO background; type: cell-based, chinese hamster; conditions: EZ (10 μM), CHO Control
Experimental: as §1, §2, §3, §4, §5, §6, §7, §8, §9, §10

[2] = tested on: intestinal cholesterol absorption; assay: Cholesterol absorption in mice, dual fecal isotope ratio method; type: in vivo, mouse
Experimental: Cholesterol absorption in the mice was determined by the dual fecal isotope ratio method as described by Altmann et al. (Biochim. Biophys. Acta. 1580(1): 77-93 (2002)). Mice (n—4-6/group) were fed a standard rodent chow diet and in some groups treated daily with a maximally effective dose of ezetimibe (10 mg/kg). Mice were gavaged with ^14C-cholesterol (1 μCi, 0.1 mg unlabeled cholesterol) and ^3H-sitostanol (2 μCi) in 0.1 ml corn oil. Feces were collected for 2 days and fecal ^14C-cholesterol and ^3H-sitostanol levels were determined by combustion in a Packard Oxidizer. The fraction of cholesterol absorbed, as evaluated by the fecal dual isotope technique, was similar in wild type (+/+) and heterozygous mice (+/−) fed a chow diet (heterozygous mice absorbed 46±5% and age matched wild type mice absorbed 51±3% of the dose of ^14C-cholesterol). The NPC1L1 knockout mice (−/−) absorbed 15.6±0.4% of the ^14C-cholesterol, which was similar to the wild type mice treated with a maximally effective dose of ezetimibe (16.1±0.3%), and reduced by 69% compared to wild type mice (p<0.001). In NPC1L1 knockout treated with ezetimibe at 10 mg/kg/day, cholesterol absorption was similar to that seen in the untreated knockout mice (16.2±0.6% compared to 15.6%±0.4%, respectively). […]

O=C1[C@H](CC[C@H](O)c2ccc(F)cc2)[C@@H](c2ccc(O)cc2)N1c1ccc(F)cc1 [ezetimibe]
Cholesteryl Ester, dpm ± sem (mouse NPC1L1; 4 Hour Pulse): 453 ± 118 dpm
Cholesteryl Ester, dpm/mg protein ± sem (mouse NPC1L1; 4 Hour Pulse): 3057 ± 776 dpm/mg protein
Free Cholesterol, dpm ± sem (mouse NPC1L1; 4 Hour Pulse): 77516 ± 1910 dpm
Free Cholesterol, dpm/mg protein ± sem (mouse NPC1L1; 4 Hour Pulse): 523803 ± 10386 dpm/mg protein
Total Cholesterol, dpm ± sem (mouse NPC1L1; 4 Min Pulse): 4569 ± 222 dpm
Total Cholesterol, dpm/mg protein ± sem (mouse NPC1L1; 4 Min Pulse): 30916 ± 1137 dpm/mg protein
Total Cholesterol, dpm ± sem (mouse NPC1L1; 12 Min Pulse): 6120 ± 755 dpm
Total Cholesterol, dpm/mg protein ± sem (mouse NPC1L1; 12 Min Pulse): 41712 ± 4054 dpm/mg protein
Total Cholesterol, dpm ± sem (mouse NPC1L1; 24 Min Pulse): 9749 ± 482 dpm
Total Cholesterol, dpm/mg protein ± sem (mouse NPC1L1; 24 Min Pulse): 74041 ± 3670 dpm/mg protein
Cholesteryl Ester, dpm ± sem ([1]; 4 Hour Pulse): 208 ± 9 dpm
Cholesteryl Ester, dpm/mg protein ± sem ([1]; 4 Hour Pulse): 1902 ± 87 dpm/mg protein
Free Cholesterol, dpm ± sem ([1]; 4 Hour Pulse): 56792 ± 568 dpm
Free Cholesterol, dpm/mg protein ± sem ([1]; 4 Hour Pulse): 519607 ± 16203 dpm/mg protein
Total Cholesterol, dpm ± sem ([1]; 4 Min Pulse): 3222 ± 26 dpm
Total Cholesterol, dpm/mg protein ± sem ([1]; 4 Min Pulse): 31881 ± 483 dpm/mg protein
Total Cholesterol, dpm ± sem ([1]; 12 Min Pulse): 4532 ± 165 dpm
Total Cholesterol, dpm/mg protein ± sem ([1]; 12 Min Pulse): 43391 ± 1197 dpm/mg protein
Total Cholesterol, dpm ± sem ([1]; 24 Min Pulse): 6678 ± 215 dpm
Total Cholesterol, dpm/mg protein ± sem ([1]; 24 Min Pulse): 61764 ± 2131 dpm/mg protein
fraction of ^14C-cholesterol absorbed ([2]; NPC1L1 knockout mice, ezetimibe 10 mg/kg/day): 16.2±0.6%
fraction of ^14C-cholesterol absorbed ([2]; wild type mice, ezetimibe 10 mg/kg daily): 16.1±0.3%

Reference: patent US7901893B2, “NPC1L1 (NPC3) and methods of identifying ligands thereof” (Merck Sharp & Dohme Corp., priority 2004, dated 2011)
